Reference: patent US7915448B2, “Substituted sulfonylaminoarylmethyl cyclopropanecarboxamide as VR1 receptor antagonists” (Pfizer Inc., priority 2005, dated 2011)
Where two headings read alike, the source gives them in different places.

Columns and labels:
[1] = human, microsomes, pH 7.4
Protocol: (§1) Test compounds (1 μM) were incubated with 3.3 mM MgCl2 and 0.78 mg/mL HLM (HL101) in 100 mM potassium phosphate buffer (pH 7.4) at 37° C. on the 96-deep well plate. The reaction mixture was split into two groups, a non-P450 and a P450 group. NADPH was only added to the reaction mixture of the P450 group. An aliquot of samples of P450 group was collected at 0, 10, 30, and 60 min time point, where 0 min time point indicated the time when NADPH was added into the reaction mixture of P450 group. An aliquot of samples of non-P450 group was collected at −10 and 65 min time point. Collected aliquots were extracted with acetonitrile solution containing an internal standard. The precipitated protein was spun down in centrifuge (2000 rpm, 15 min). The compound concentration in supernatant was measured by LC/MS/MS system.
(§2) The half-life value was obtained by plotting the natural logarithm of the peak area ratio of compounds/internal standard versus time. The slope of the line of best fit through the points yields the rate of metabolism (k).

[2] = molecular target: T1, human VR1 receptors (Homo sapiens, UniProt Q8NER1); assay: Human VR1 antagonist assay (Ca2+ imaging); assay type: cell-based; settings: cells expressing human VR1, fura-2 Ca2+ imaging, FDSS 6000; capsaicin (300 nM) or acid (pH5.8) stimulation, table does not say which
T1 construct: host or cells: cells highly expressing human VR1; cell type not specified
T1 sequence (Q8NER1 whole entry): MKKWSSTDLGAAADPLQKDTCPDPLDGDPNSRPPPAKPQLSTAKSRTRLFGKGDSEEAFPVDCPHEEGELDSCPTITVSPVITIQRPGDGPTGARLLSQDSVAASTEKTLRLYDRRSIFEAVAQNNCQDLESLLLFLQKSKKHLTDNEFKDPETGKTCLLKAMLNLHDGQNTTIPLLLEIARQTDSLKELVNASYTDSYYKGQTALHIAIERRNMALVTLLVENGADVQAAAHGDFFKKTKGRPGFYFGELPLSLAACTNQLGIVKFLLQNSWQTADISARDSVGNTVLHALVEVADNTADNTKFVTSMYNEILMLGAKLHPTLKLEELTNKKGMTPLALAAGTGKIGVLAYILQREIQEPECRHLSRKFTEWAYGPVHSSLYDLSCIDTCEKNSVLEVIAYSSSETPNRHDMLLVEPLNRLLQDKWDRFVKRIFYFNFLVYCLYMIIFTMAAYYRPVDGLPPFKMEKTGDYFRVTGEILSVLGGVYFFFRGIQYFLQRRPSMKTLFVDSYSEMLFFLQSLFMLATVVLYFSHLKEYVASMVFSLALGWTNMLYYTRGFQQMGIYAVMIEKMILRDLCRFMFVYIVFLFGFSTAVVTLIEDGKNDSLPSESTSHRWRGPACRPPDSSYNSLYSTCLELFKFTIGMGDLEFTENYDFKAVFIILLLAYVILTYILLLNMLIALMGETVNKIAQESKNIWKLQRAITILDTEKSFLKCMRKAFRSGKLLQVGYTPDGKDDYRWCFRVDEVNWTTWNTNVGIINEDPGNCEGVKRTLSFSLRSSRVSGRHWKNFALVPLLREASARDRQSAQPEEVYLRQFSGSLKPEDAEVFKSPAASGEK
Method in brief: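 Human VR1-expressing cells loaded with 5 μM fura-2/AM for 1 h, resuspended at 3.75×10^5 cells/ml and preincubated 15 min at room temperature in the dark with compound. Stimulation by 300 nM capsaicin in KRH buffer pH 7.3, or by acid (HBSS/MES, final pH 5.8) from HBSS-HEPES pH 7.4; fluorescence (ex 340/380 nm, em 510-520 nm) monitored from 1 min before addition for 5 min.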

[3] = Half-life in Human Liver Microsomes (HLM); settings: pH 7.4; for half-life at 1 μM: human, human liver microsomes (HL101)
Protocol: as §1, §2

With `Cc1cc([C@@H](C)NC(=O)C2CC2c2ccc(C(C)(C)C)cc2)ccc1NS(C)(=O)=O` (stereo partly shown) [Example 7, 2-(4-tert-Butylphenyl)-N-((1 FR)-1-{3-methyl-4-[(methylsulfonyl)amino]phenyl}ethyl)cyclopropanecarboxamide] the “T1/2” value [1] was 33 min and the IC50 [2] was 15 nM.
`Cc1cc([C@@H](C)NC(=O)C2CC2(CO)c2ccc(C(C)(C)C)cc2)ccc1NS(C)(=O)=O` (stereo partly drawn) [Example 59, 2-[4-tert-Butylphenyl]-2-(hydroxymethyl)-N-((1R)-1-{3-methyl-4-[(methylsulfonyl)amino]phenyl}ethyl)cyclopropanecarboxamide] showed an IC50 [2] of 263 nM and a half-life at 1 μM [3] of 22 min.
Work on `C[C@@H](NC(=O)[C@H]1C[C@]1(C)c1ccc(C(F)(F)F)cc1)c1cc(F)c(NS(C)(=O)=O)cc1F` [Example 60, (1S,2S)-N-((1R)-1-{2,5-Difluoro-4-[(methylsulfonyl)amino]phenyl}ethyl)-2-methyl-2-[4-(trifluoromethyl)phenyl]cyclopropanecarboxamide] yielded an IC50 [2] of 25.1 nM and a half-life at 1 μM [3] of over 120 min.
`C[C@@H](NC(=O)[C@H]1C[C@]1(C)c1ccc(C(F)(F)F)cc1)c1cc(F)c(NS(C)(=O)=O)c(F)c1` [Example 61, (1S,2S)-N-((1R)-1-{3,5-Difluoro-4-[(methylsulfonyl)amino]phenyl}ethyl)-2-methyl-2-[4-(trifluoromethyl)phenyl]cyclopropanecarboxamide] gave an IC50 [2] of 3.17 nM and a half-life at 1 μM [3] of over 120 min.
For `COC1(c2ccc(C(F)(F)F)cc2)CC1C(=O)N[C@H](C)c1ccc(NS(C)(=O)=O)c(C)c1` (stereo partly drawn) [Example 63, N-((1R)-1-{3-Methyl-4-[(methylsulfonyl)amino]phenyl}ethyl)-2-(methyloxy)-2-[4-(trifluoromethyl)phenyl]cyclopropanecarboxamide], the IC50 [2] was 6.66 nM and the half-life at 1 μM [3] was 35.6 min.
Compound `COC1(c2ccc(C(C)(C)C)cc2)CC1C(=O)N[C@H](C)c1ccc(NS(C)(=O)=O)c(C)c1` (stereo partly drawn) [Example 64, 2-[4-tert-Butylphenyl]-N-((1R)-1-{3-methyl-4-[(methylsulfonyl)amino]phenyl}ethyl)-2-(methyloxy)cyclopropanecarboxamide] has an IC50 [2] of 4.62 nM and a half-life at 1 μM [3] of 14 min.
`Cc1cc([C@@H](C)NC(=O)C2CC2(C)c2ccc(C(F)(F)F)c(F)c2)ccc1NS(C)(=O)=O` (stereo partly drawn) [Example 66, 2-[3-Fluoro-4-(trifluoromethyl)phenyl]-2-methyl-N-((1R)-1-{3-methyl-4-[(methylsulfonyl)amino]phenyl}ethyl)cyclopropanecarboxamide] gave an IC50 [2] of 0.421 nM and a half-life at 1 μM [3] of 34 min.
Work on `C[C@@H](NC(=O)C1CC1(C)c1ccc(C(F)(F)F)c(F)c1)c1ccc(NS(C)(=O)=O)c(F)c1` (stereo partly drawn) [Example 67, N-((1R)-1-{3-Fluoro-4-[(methylsulfonyl)amino]phenyl}ethyl)-2-[3-fluoro-4-(trifluoromethyl)phenyl]-2-methylcyclopropanecarboxamide] yielded an IC50 [2] of 5.64 nM and a half-life at 1 μM [3] of 95 min.
`Cc1cc([C@@H](C)NC(=O)C2CC2c2ccc(C(C)(C)C)cc2CO)ccc1NS(C)(=O)=O` (stereo partly drawn) [Example 68, 2-[4-tert-Butyl-2-(hydroxymethyl)phenyl]-N-((1R)-1-{3-methyl-4-[(methylsulfonyl)amino]phenyl}ethyl)cyclopropanecarboxamide] showed an IC50 [2] of 62 nM and a half-life at 1 μM [3] of 18 min.
`C[C@@H](NC(=O)C1CC1(C)c1ccc(S(=O)(=O)C(F)(F)F)cc1)c1ccc(NS(C)(=O)=O)c(CO)c1` (stereo partly drawn) [Example 69, N-((1R)-1-{3-(Hydroxymethyl)-4-[(methylsulfonyl)amino]phenyl}ethyl)-2-methyl-2-{4-[(trifluoromethyl)sulfonyl]phenyl}cyclopropanecarboxamide] gave an IC50 [2] of 212 nM and a half-life at 1 μM [3] of 30 min.
With `Cc1cc([C@@H](C)NC(=O)[C@H]2C[C@]2(C)c2ccc(C(F)(F)F)cc2)ccc1NS(C)(=O)=O` [Example 70, (1S,2S)-2-Methyl-N-((1R)-1-{3-methyl-4-[(methylsulfonyl)amino]phenyl}ethyl)-2-[4-(trifluoromethyl)phenyl]cyclopropanecarboxamide] the IC50 [2] was 0.83 nM and the “T1/2” value ([3]; 1 μM compound, 0.78 mg/mL HLM, 37° C., NADPH) was 38 min.
For `C[C@@H](NC(=O)C1CC1(C)c1ccc(C(F)(F)F)c(F)c1)c1cc(F)c(NS(C)(=O)=O)c(F)c1` (stereo partly drawn) [Example 73, N-((1R)-1-{3,5-Difluoro-4-[(methylsulfonyl)amino]phenyl}ethyl)-2-[3-fluoro-4-(trifluoromethyl)phenyl]-2-methylcyclooropanecarboxamide], the “T1/2” value [1] was over 120 min and the IC50 [2] was 0.76 nM.
`C[C@@H](NC(=O)[C@@H]1C[C@@]1(C)c1ccc(C(F)(F)F)c(F)c1)c1cc(F)c(NS(C)(=O)=O)c(F)c1` [Example 74, N-((1R)-1-{3,5-Difluoro-4-[(methylsulfonyl)amino]phenyl}ethyl)-2-[3-fluoro-4-(trifluoromethyl)phenyl]-2-methylcyclopropanecarboxamide] gave an IC50 [2] of 21 nM and a half-life at 1 μM [3] of over 120 min.
For `CC[C@@H](NC(=O)[C@H]1C[C@@H]1c1cc(F)c(C(C)(C)C)c(F)c1)c1ccc(NS(C)(=O)=O)c(C)c1` [Example 76, 2-(4-tert-Butyl-3,5-difluorophenyl)-N-((1R)-1-{3-methyl-4-[(methylsulfonyl)amino]phenyl}propyl)cyclopropanecarboxamide], the IC50 [2] was 26.3 nM and the half-life at 1 μM [3] was 33 min.
For `Cc1cc([C@@H](C)NC(=O)[C@H]2C[C@@H]2c2ccc(C(F)(F)F)nc2N(C)C)c(F)cc1NS(C)(=O)=O` [Example 79, 2-[2-(Dimethylamino)-6-(trifluoromethyl)pyridin-3-yl]-N-((1R)-1-{2-fluoro-5-methyl-4-[(methylsulfonyl)amino]phenyl}ethyl)cyclopropanecarboxamide], the IC50 [2] was 20.5 nM and the half-life at 1 μM [3] was 22 min.
Work on `Cc1cc([C@@H](C)NC(=O)[C@H]2C[C@]2(C)c2ccc(C(F)(F)F)nc2N2CCOCC2)ccc1NS(C)(=O)=O` [Example 84, 2-Methyl-N-((1R)-1-{3-methyl-4-[(methylsulfonyl)amino]phenyl}ethyl)-2-[2-morpholin-4-yl-6-(trifluoromethyl)pyridin-3-yl]cyclopropanecarboxamide] yielded an IC50 [2] of 24.5 nM and a half-life at 1 μM [3] of 3 min.
In the case of “N-((1R)-1-{3,5-Difluoro-4-[(methylsulfonyl)amino]phenyl}ethyl)-2-[3,5-difluoro-4-(2,2,2-trifluoro-1-dimethylethyl)phenyl]-2-methylcyclopropanecarboxamide [Example 80]”, the “T1/2” value [1] is reported as 117 min and the IC50 [2] is reported as 3.01 nM.
